Source: patent publication US4443434A, “Antiulcer agent” (American Home Products Corporation, priority 1982, dated 1984)

What was measured:
[1] = tested on: gastric acid secretion; conditions: on a molar basis; cited from earlier work
[2] = tested on: gastric blood flow; assay: gastric blood flow by 86Rb distribution in rats; assay type: in vivo, rat; conditions: 1 mg/kg/hr i.v. infusion, 86RbCl at 30 min, mean ± S.E.M., 5 animals per group; saline 1.20 ± 0.05
Method: The effect of the octapeptide on gastric blood flow was established by the following procedure:
Rats weighing 280-350 gms were used. Rats were anesthatized with 50 mg/kg Nembutal and their left jugular veins cannulated. Somatostatin, 1 mg/kg/hr, was infused i.v. in one group of rats while a second group received a saline infusion. In a second experiment the octapeptide of the method of this invention, 1 mg/kg, or saline was injected s.c. Thirty minutes following the start of the experiment 20 μCi/rat of ^86 RbCl was injected i.v. The rats were killed 20 seconds later by injection of 0.5 ml Nembutal. The blood flow to the stomach was determined by counting ^86 Rb in the disected stomachs of the rats.

[3] = tested on: gastric acid secretion; conditions: dose as high as 2 μm/kg, s.c.; cited from earlier work

CSCCC(NC(=O)C(Cc1c[nH]c2ccccc12)NC(=O)CNC(=O)C(Cc1ccc(O)cc1)NC(=O)C(C)NC(=O)C(CCC(=O)O)NC(=O)C(CCC(=O)O)NC(=O)C(CCC(=O)O)NC(=O)[C@H](CCC(=O)O)NC(=O)[C@H](CCC(=O)O)NC(=O)[C@H](CC(C)C)NC(=O)[C@H](Cc1c[nH]c2ccccc12)NC(=O)[C@@H]1CCCN1C(=O)CNC(=O)[C@@H](N)CCC(=O)O)C(=O)NC(CC(=O)O)C(=O)NC(Cc1ccccc1)C(N)=O (stereo in doubt) [gastrin]
potency as stimulant of gastric acid secretion relative to histamine [1]: 1,500 times

C[C@H](N)C(=O)NCC(=O)N[C@H]1CSSC[C@@H](C(=O)O)NC(=O)[C@H](CO)NC(=O)[C@H]([C@@H](C)O)NC(=O)[C@H](Cc2ccccc2)NC(=O)[C@H]([C@@H](C)O)NC(=O)[C@H](CCCCN)NC(=O)[C@H](Cc2c[nH]c3ccccc23)NC(=O)[C@H](Cc2ccccc2)NC(=O)[C@H](Cc2ccccc2)NC(=O)[C@H](CC(N)=O)NC(=O)[C@H](CCCCN)NC1=O [somatostain, somatostatin]
% total 86Rb in stomach [2]: 1.03 ± 0.05%

D-Lys^6 -SRIF
effect on gastric acid secretion [3]: no appreciable effect
